Laboratory results taken from patent publication US20160153045A1, “Biomarkers for Increased Risk of Drug-Induced 5-Aminosalicylate Nephrotoxicity” (Severe Adverse Event (SAE) Consortium, priority 2014, published 2016).

Tests used:
[1] = test system: patients; conditions: in vivo; cited from earlier work
[2] = test system: Inflammatory bowel disease patients; conditions: human, in vivo
Text: Methods: Inflammatory bowel disease patients were recruited from 89 sites around the world. Inclusion criteria included normal renal function prior to commencing 5-ASA, ≧50% rise in creatinine any time after starting 5-ASA and physician opinion implicating 5-ASA strong enough to justify drug withdrawal. An adjudication panel identified definite and probable cases from structured case report forms. A genome wide association study was then undertaken with these cases and 4,109 disease controls.
Patient Recruitment: Individual study sites identified and recruited patients with 5-ASA induced nephrotoxicity. This study was open to recruitment at 118 UK research sites (73.8% of the 160 acute NHS trusts in the UK) as well as 45 international sites. In total 77 sites from the UK and 12 sites from outside the UK recruited one or more patients. The protocol was approved by the National Research Ethics Committee South West, Exeter, UK (10/H0203/76) and by all local research and development offices.
Inclusion criteria for patient recruitment required the presence of all of the following: • Patient administered any 5-ASA compound for treatment of inflammatory bowel disease (Crohn's disease, ulcerative colitis or IBD-unclassified) • Patient aged 6 or over • Normal creatinine or estimated glomerular filtration rate (eGFR) prior to first administration of 5-ASA or a creatinine that returned to the normal range after cessation of therapy • Greater than or equal to 50% rise in serum creatinine any time after introduction of 5-ASA • Physician opinion implicating 5-ASA strong enough to justify drug withdrawal, even if temporary
Cases were identified from recruiting sites through clinics and systematic searches of historical records and pathology databases. Gastroenterologists who replied to a 2001-2002 UK survey of 5-ASA induced nephrotoxicity were encouraged to submit cases^10. Clinicians who had submitted adverse drug reaction reports to the Medicines and Healthcare Products Regulatory Agency (MHRA) were invited to consider recruiting patients. Direct advertising to patients through the national patient newsletter was also undertaken. Cases were recruited who developed nephrotoxicity between 1988 and 2013 (73% of cases were diagnosed with renal injury after the year 2000).
Case adjudication: An anonymised case report form detailing demographic, clinical and drug history was completed with the aid of hospital records. Two 6 ml EDTA blood samples were taken at this visit for DNA extraction (BD Vacutainer, USA). The case report forms also requested creatinine levels and their corresponding dates at four time points: 1) at baseline (usually before 5-ASA commenced, but not exclusively), 2) at the recording of first abnormal creatinine value, 3) the worst creatinine value and 4) the best recovered creatinine value. After data collection, the last normal creatinine value before development of renal injury was also obtained, if it was available (92/151 cases), to enable better characterisation of the time period. If a renal biopsy was performed, the anonymised report was requested.
To assess patient eligibility for entry to this study, at least three gastroenterologists and at least one nephrologist reviewed each case for causality at a dedicated in-person adjudication panel meeting. For each case the evidence implicating the 5-ASA as the cause of nephrotoxicity was assessed using an adapted version of the validated Liverpool Adverse Drug Reaction Causality Assessment Tool^16. Patients were classified as definite, probable, possible or unlikely cases of 5-ASA nephrotoxicity based on the adjudicator's independent assessment that the nephrotoxicity was due to 5-ASA treatment. The panel discussed all cases before a final adjudication decision was reached. Only individuals classified as probable or definite cases of 5-ASA induced nephrotoxicity were taken forward for clinical and genetic analyses. […]

Nc1ccc(O)c(C(=O)O)c1 [5-ASA, 5-aminosalicylate]
annual risk of nephrotoxicity [1]: 0.26%
biopsies with acute interstitial inflammation [2]: 22%
biopsies with acute on chronic interstitial inflammation [2]: 20%
biopsies with only chronic inflammatory changes in the interstitium [2]: 58%
cases with an abnormal creatinine within the first 12 months of treatment [2]: 13%
cases with full recovery of renal function after drug withdrawal [2]: 30%
definite cases: second episode of kidney injury when re-challenged with the agent [2]: 5 cases
patients requiring renal replacement therapy [2]: 15 patients
renal biopsies with clear evidence of interstitial nephritis [2]: 57 patients
